Assays:
[1] = clinical; settings: human, in vivo, 100 mg; for AUC(0-t): AUC0-t; for Vd/F: Vz/F
Excerpt: Methods: This was an open-label study conducted at a single study center in conformance with good clinical practice (GCP). Thirty-six eligible healthy male and female subjects were enrolled and distributed into 3 groups as follows:
Group 1—A total of 12 females between 18 to 55 years of age, inclusive (±5 years age-matched and ±10% weight-matched to subjects in Group 2).
Group 2—A total of 12 males between 18 to 55 years of age, inclusive (±5 years age-matched and ±10% weight-matched to subjects in Group 1).
Group 3—A total of 12 males and females between 65 and 85 years of age, inclusive (weight and gender-matched to subjects in Groups 1 and 2), with a minimum of 3 subjects of each gender. Seven of the subjects in Group 3 were age 70 or above, with 2 of those subjects being >75 years of age.
Group 1 (Healthy Females) and Group 3 (Elderly Males and Females): Subjects were screened within 21 days of dosing and eligible subjects were admitted to the study center on Day −1 (i.e., at least 12 hours predose) for baseline assessments and confirmation of eligibility. A single oral dose of 100 mg Compound I was administered on Day 1 following an overnight fast of at least 8 hours. Subjects were discharged from the study center the morning of Day 3 upon completion of study procedures and returned to the study center for PK blood draws and safety assessments on Days 4, 5, and 6. The end-of-study (EOS) evaluation also occurred on Day 6. Subjects returned to the study center for a follow-up visit between 7 and 10 days from EOS. Serial blood samples were collected predose and up to 120 hours postdose for the determination of plasma Compound I concentrations. Safety was monitored throughout the study; safety evaluations included AE reporting, physical examinations, vital sign measurements, ECGs, and clinical laboratory safety tests. All AEs and concomitant medications were assessed and recorded throughout the study from the time the ICF was signed through follow-up.
Group 2 (Healthy Males): Subjects in Group 2 participated in this portion of the study to evaluate food effect using a randomized, open-label, single dose, 2-period (Period 1 and Period 2), 2-sequence, 2-way crossover design. Subjects were screened within 21 days of dosing and eligible subjects were admitted to the study center on Day −1 (i.e., at least 12 hours predose) for baseline assessments and confirmation of eligibility. On Day 1 of Period 1, following an overnight fast of at least 8 hours, subjects were randomized to receive 100 mg Compound I either with or without food (6 subjects received Compound I with food and 6 subjects received Compound I without food) according to a random code. Subjects were discharged from the study center the morning of Day 3 upon completion of study procedures and returned to the study center for PK blood draws and safety assessments on Days 4, 5, and 6.
Following an interdose interval of 10 to 15 days (i.e., at least 10 days and no more than 15 days from the dosing day (Day 1) of Period 1 to Day 1 of Period 2), subjects were re-admitted to the study center on Day −1 of Period 2 (i.e., at least 12 hours predose) for baseline assessments and reconfirmation of eligibility. On Day 1 of Period 2, assigned treatment was switched. Subjects who received Compound I with food in Period 1 received Compound I without food in Period 2 and subjects who received Compound I without food in Period 1 received Compound I with food in Period 2. Subjects were discharged from the study center the morning of Day 3 upon completion of study procedures and returned to the study center for PK blood draws and safety assessments on Days 4, 5, and 6. Day 6 of Period 2 also served as the EOS evaluation. Subjects returned to the study center for a follow-up visit between 7 and 10 days from EOS. In each study period, serial blood samples were collected predose and up to 120 hours postdose for the determination of plasma Compound I concentrations. […]

[2] = Oral developmental toxicity study in the rabbit; settings: female, New Zealand White Hra:(NZW)SPF, rabbit, in vivo, oral
Excerpt: (§1) Additionally, four groups of five animals/group served as toxicokinetic (TK) animals and received the vehicle or test article in the same manner and dose levels as the main study groups. All time-mated females arrived at the laboratory on GD 0, the day evidence of mating was observed.

[3] = tested on: time-mated female New Zealand White Hra:(NZW)SPF rabbits; test: Oral developmental toxicity study in the rabbit; settings: rabbits
Excerpt: as §1

Compound: O[C@H]1CC[C@H](Nc2ncc3nc(Nc4c(F)cc(F)cc4F)n([C@H]4CCOC4)c3n2)CC1 [Compound I, 4-((9-((3S)-tetrahydro-3-furanyl)-8-((2,4,6-trifluorophenyl)amino)-9H-purin-2-yl)amino)-trans-cyclohexanol]
- AUC(0-t) ([1]; both sexes, po, Geometric Mean): 13500 ng·h/mL
- AUC(0-t) ([1]; both sexes, po, Geometric Means): 13500 ng·h/mL
- AUC(0-inf) ([1]; both sexes, po, AUC0-∞ (geometric mean)): 14400 ng·h/mL
- AUC(0-inf) ([1]; both sexes, po, AUC0-∞, Geometric Mean): 14400 ng·h/mL
- AUC(0-inf) ([1]; both sexes, po, AUC0-∞, Geometric Means): 14300 ng·h/mL
- AUC ([1]; both sexes, po, AUCO-inf): 14800 ng·h/mL
- AUC ([1]; both sexes, po, AUCO-t): 14200 ng·h/mL
- Cmax ([1]; both sexes, po, Cmax): 742 ng/mL
- Cmax ([1]; both sexes, po, Cmax (geometric mean)): 649 ng/mL
- Cmax ([1]; both sexes, po, Cmax, Geometric Mean): 602 ng/mL
- Cmax ([1]; both sexes, po, Cmax, Geometric Means): 654 ng/mL
- half-life ([1]; both sexes, po, T1/2): 24.5 h
- Tmax ([1]; both sexes, po, Tmax): 1.97 h
- Tmax ([1]; both sexes, po, Tmax, Median): 2 h
- Vd/F ([1]; both sexes, po): 250 L
- half-life ([1]; both sexes, po, mean t1/2): 23 to 34 h
- Tmax ([1]; both sexes, po, median Tmax): 1 to 2 h
- half-life ([1]; both sexes, po, t1/2, Geometric Mean): 27.9 h
- 90% CI for the ratio (elderly/young) of geometric means, AUC0-t ([1]; both): 86.7, 119.1
- 90% CI for the ratio (elderly/young) of geometric means, AUC0-∞ ([1]; both): 84.0, 117.3
- 90% CI for the ratio (elderly/young) of geometric means, Cmax ([1]; both): 82.0, 143.8
- 90% CI for the ratio (female/male) of geometric means, AUC0-t ([1]; both): 81.7, 112.1
- 90% CI for the ratio (female/male) of geometric means, AUC0-∞ ([1]; both): 79.7, 111.4
- 90% CI for the ratio (female/male) of geometric means, Cmax ([1]; both): 72.3, 126.7
- AUC0-t, Geometric Mean ([1]; both, po): 13679.40 ng·h/mL
- AUC0-t, Geometric Means ([1]; both, po): 13722.1 ng·h/mL
- AUC0-∞ (geometric mean) ([1]; both, po): 14239.14 ng·h/mL
- AUC0-∞, Geometric Mean ([1]; both, po): 14239.14 ng·h/mL
- AUC0-∞, Geometric Means ([1]; both, po): 14398.3 ng·h/mL
- Cmax, Geometric Means ([1]; both, po): 602.0 ng/mL
- Tmax, Median ([1]; both, po): 1.75 h
- median Tmax ([1]; both, po): approximately 1.5 hours
- t1/2, Geometric Mean ([1]; both, po): 23.61 h
- AUC(0-t) ([1]; female, po, Geometric Mean): 13100 ng·h/mL
- AUC(0-t) ([1]; female, po, Geometric Means): 13300 ng·h/mL
- AUC(0-inf) ([1]; female, po, AUC0-∞): 13700 ng·h/mL
- AUC(0-inf) ([1]; female, po, AUC0-∞, Geometric Mean): 13700 ng·h/mL
- AUC(0-inf) ([1]; female, po, AUC0-∞, Geometric Means): 13900 ng·h/mL
- AUC ([1]; female, po, AUCO-inf): 13300 ng·h/mL
- AUC ([1]; female, po, AUCO-t): 12700 ng·h/mL
- Cmax ([1]; female, po, Cmax): 587 ng/mL
- Cmax ([1]; female, po, Cmax, Geometric Mean): 587 ng/mL
- Cmax ([1]; female, po, Cmax, Geometric Means): 614 ng/mL
- half-life ([1]; female, po, T1/2): 24.4 h
- Tmax ([1]; female, po, Tmax): 2.19 h
- Tmax ([1]; female, po, Tmax, Median): 2.06 h
- Vd/F ([1]; female, po): 265 L
- Tmax ([1]; female, po, median Tmax): 2 h
- half-life ([1]; female, po, t1/2, Geometric Mean): 24.6 h
- 90% CI of the median difference (elderly-young), Tmax [1]: −0.5, 0.5
- 90% CI of the median difference (fed-fast), Tmax [1]: 2.00, 3.00
- 90% CI of the median difference (female-male), Tmax [1]: 0.00, 1.00
- 90% CI for the ratio (fed/fast) of geometric means, AUC0-t ([1]; male): 97.3, 108.1
- 90% CI for the ratio (fed/fast) of geometric means, AUC0-∞ ([1]; male): 98.5, 109.4
- 90% CI for the ratio (fed/fast) of geometric means, Cmax ([1]; male): 71.6, 105.3
- Tmax ([1]; male): 1.00 h
- AUC(0-t) ([1]; male): 14400 ng·h/mL
- AUC(0-inf) ([1]; male, AUC0-∞): 15600 ng·h/mL
- Cmax ([1]; male, Cmax): 658 ng/mL
- half-life ([1]; male, t1/2): 32 h
- median Tmax ([1]; male, po): 1 h
- AUC(0-t) ([1]; male, po, Geometric Mean): 14000 ng·h/mL
- AUC(0-inf) ([1]; male, po, AUC0-∞): 15000 ng·h/mL
- AUC(0-inf) ([1]; male, po, AUC0-∞ (geometric mean)): 16200 ng·h/mL
- AUC(0-inf) ([1]; male, po, AUC0-∞, Geometric Mean): 15000 ng·h/mL
- AUC ([1]; male, po, AUCO-inf): 16000 ng·h/mL
- AUC ([1]; male, po, AUCO-t): 14700 ng·h/mL
- Cmax ([1]; male, po, Cmax): 646 ng/mL
- Cmax ([1]; male, po, Cmax (geometric mean)): 572 ng/mL
- Cmax ([1]; male, po, Cmax, Geometric Mean): 646 ng/mL
- half-life ([1]; male, po, T1/2): 33 h
- Vd/F ([1]; male, po): 308 L
- half-life ([1]; male, po, t1/2, Geometric Mean): 28.1 h
- NOAEL [2]: 20 mg/kg/day
- NOEL for developmental toxicity [3]: 20 mg/kg/day
- doses at which developmental effects were observed [3]: 40 mg/kg/day
- teratogenicity [3]: teratogenic
- litters with viable fetuses for evaluation on GD 29 ([3]; 10 mg/kg/day): 19
- main study pregnancy index ([3]; 10 mg/kg/day): 95%
- litters with viable fetuses for evaluation on GD 29 ([3]; 20 mg/kg/day): 20
- main study pregnancy index ([3]; 20 mg/kg/day): 100%
- litters with viable fetuses for evaluation on GD 29 ([3]; 40 mg/kg/day): 10
- main study pregnancy index ([3]; 40 mg/kg/day): 95%
- litters containing one or more fetuses with a malformation ([3]; 40 mg/kg/day, GD 29, controls 25%): 70%
